The text below walks through data of patent US20060029544A1, “Receptor-binding cyclic peptides and methods of use” (The Regents of the University of California Office of …, priority 2004, published 2006).

Where two headings read alike, the source gives them in different places.

Data set [1] relates to A375M, a human melanoma which expresses αvβ3 integrin. Briefly: PET imaging (ECAT 951R) of mice bearing A375M tumors. It counts as in vivo. Particulars: 30 minutes after injection. On the procedure: (§1) In vivo biodistribution studies were performed in mice using A375M, a human melanoma which expresses αvβ3 integrin. MF1 nu/nu mice were given subcutaneous injections of A375M cells into the left inguinal region. Once tumors reached 4-10 mm in size, mice (n=5 mice per time point) were injected with 50 kBq of [^18F]-C7 and sacrificed at 15, 30, and 60 minutes after injection. A second group of animals (n=3) was injected with 50 kBq of [^18F]-C7, sacrificed at 30minutes after injection, and imaged using an ECAT 951R whole body PET scanner.

The test system is the same in data set [2]. As to the kind of experiment: In vivo biodistribution in mice bearing A375M tumors. The following applies: mouse. On the procedure:
as §1

The next data set addresses T1, αvβ5 integrin (Homo sapiens, UniProt P06756+P18084).
T1 construct: chimeras comprising the extracellular domain of αvβ3, αvβ5, α5β1, and αIIbβ3 linked to the Fc domain of either mouse IgG; purchased Celltech plc (supplied, no catalogue number); host or cells: unpurified hybridoma / tissue culture supernatant from secreting cells
As to the kind of experiment: ELISA: biotinylated vitronectin binding to captured soluble αvβ5-mFc in the presence of RGD peptides. An excerpt:
(§2) Four different soluble integrins were supplied by Celltech plc. Soluble forms of αvβ3, αvβ5, α5β1, and αIIbβ3 integrin were generated by constructing chimeras comprising the extracellular domain of αvβ3, αvβ5, α5β1, and αIIbβ3 linked to the Fc domain of either mouse IgG (αvβ3-mFc, αvβ5-mFc, and αIIbβ3-mFc) or human IgG (α5β1-hFc) as described by Stephens et al., Cell Adhes. Commun., 7:377-390 (2000) and Coe et al., J. Biol. Chem., 276:35854-35866 (2001). Since the four soluble integrin chimeras were supplied either as purified proteins (αvβ3-mFc and α5β1-hFc) or as unpurified hybridoma supernatants (αIIbβ3-mFc and αvβ5-mFc), it was necessary to use two types of ELISAs. […] In one type of ELISA (FIGS. 2A and 2B), the immobilized component is a 50 kDa fragment of fibronectin. In the second type of ELISA (FIGS. 2C and 2D), the immobilized component is a goat anti-mFc antibody that is used to capture chimeric proteins so that the RGD binding site of the integrin is maximally exposed. Each three-sided box in FIG. 2 represents a single well of a 96-well plate, and the components are listed in the sequence of their addition to the assay. The immobilized component at the bottom of the well is bound to the well by electrostatic interactions.
To analyze the affinity and selectively of RGD peptides for αIIbβ3 and αvβ5, 96-well ELISA plates were coated with anti-murine Fc antibody at 5 μg/ml in PBS, 100 μl per well and left overnight at 4° C. The plates were washed with PBS using a Denley Wellwash 4 Mk 2. Washing was repeated twice with a 400 μl wash per well. 200 μl/well of blocking buffer was then added for 1 hour followed by a repeat washing with PBS. 100 μl of tissue culture supernatant from cells secreting soluble αIIbβ3-mFc or αvβ5-mFc, diluted 1:2 in conjugate buffer, was added to each well. Plates were incubated with shaking for 1 hour followed by two washes with PBS. 100 μl of an RGD peptide (at concentrations of 200, 20, and 2 μM), followed by either 100 μl of biotinylated fibrinogen (at 1 μg/ml in conjugate buffer) or 100 μl of biotinylated vitronectin (at 2 μg/ml in conjugate buffer) were added to each well and incubated for 2 hours with shaking. After incubation, the plates were washed with PBS as described above. 100 μl of neutravidin-peroxidase was added to each well and the plates were incubated for 30 minutes with shaking, followed by two washes with PBS. 100 μl of TMB substrate was added to each well and the plates were shaken during color development. Plates were read using a plate spectrophotometer at 630 nm.
(§3) Two negative and two positive controls were used in both types of ELISAs. For example, the negative controls were wells that contained 50 μl of an active control peptide, integrin, and biotinylated ligand or 50 μl of the active control peptide and 50 μl of buffer. These negative control wells typically develop little to no color. […] These wells typically develop the maximum amount of color.
(§4) FIGS. 3-6 illustrate the percent binding of the vitronectin, fibronectin, or fibrinogen ligand to αvβ5, α5β1, αIIbβ3, or αvβ3 integrin in the presence of RGD peptides (i.e., linear (A), cyclic (B), or 4-[^19F]-fluorobenzoyl cyclic (C)) at different concentrations, with 100% maximum signal being the signal obtained in the absence of the peptide.
A general note: In an ELISA, binding on a coated surface is turned into a signal by an enzyme label.

In another data set the target is T2, α5β1 integrin (Homo sapiens, UniProt P05556+P08648).
T2 construct: chimeras comprising the extracellular domain of αvβ3, αvβ5, α5β1, and αIIbβ3 linked to the Fc domain of either mouse IgG; purchased Celltech plc (supplied, no catalogue number)
Briefly: ELISA: soluble α5β1-hFc binding to immobilized 50 kDa fibronectin fragment in the presence of RGD peptides.
Text: as §2
To analyze the affinity and selectively of RGD peptides for αvβ3 and α5β1, 96-well ELISA plates were coated with 100 μl of a 5 μg/ml of the 50 kDa fragment of fibronectin in PBS per well and left overnight at 4° C. The plates were washed with PBS using a Denley Wellwash 4 Mk 2. Washing was repeated twice with a 400 μl wash per well. 200 μ/well of blocking buffer (i.e., to prevent non-specific binding of proteins) was then added for 1 hour followed by a repeat washing with PBS. RGD peptides were then added at a maximum concentration of 200 μM and a preliminary screen was performed at three concentrations, 200,20, and 2 μM. 100 μl of an RGD peptide was added to each well and each assay was performed in triplicate. Purified soluble αvβ3-mFc or purified α5β1-hFc was diluted to 2 μg/ml and 15 ng/ml, respectively, in conjugate buffer and 100 μl was added to each well. The plates were incubated for 2 hours with shaking using a Luckham R100 Rotatest at approximately 150 rpm. After incubation, the plates were washed with PBS as previously described and a labeled antibody was added. For the αvβ3 assay, a horseradish peroxidase (HRP)-labeled F(ab′)2 fragment of goat anti-mouse IgG Fc was diluted 1:2000 in conjugate buffer and 100 μl was added to each well. For the α5β1 assay, an HRP-labeled F(ab′)2 fragment of goat anti-human IgG Fc was diluted 1:2000 in conjugate buffer and 100 μl was added to each well. Plates were incubated for 30 minutes with shaking followed by 2 washes with PBS. 100 μl of TMB substrate was added to each well and plates were shaken during a 10 minute color development. Plates were read using a plate spectrophotometer at 630 nm.
as §3, §4

In a further data set the target is T3, αvβ3 integrin (Homo sapiens, UniProt P05106+P06756).
T3 construct: chimeras comprising the extracellular domain of αvβ3, αvβ5, α5β1, and αIIbβ3 linked to the Fc domain of either mouse IgG; purchased Celltech plc (supplied, no catalogue number)
As to the kind of experiment: ELISA: soluble αvβ3-mFc binding to immobilized 50 kDa fibronectin fragment in the presence of RGD peptides. The following applies: Table 2, no unit printed (b200 gives same values in μM).
Text: as §2
The plates were washed with PBS using a Denley Wellwash 4 Mk 2. Washing was repeated twice with a 400 μl wash per well. […] Plates were read using a plate spectrophotometer at 630 nm.
(§5) Two negative and two positive controls were used in both types of ELISAs.
as §4

For the next data set, the target named is T4, αIIbβ3 integrin (Homo sapiens, UniProt P05106+P08514).
T4 construct: chimeras comprising the extracellular domain of αvβ3, αvβ5, α5β1, and αIIbβ3 linked to the Fc domain of either mouse IgG; purchased Celltech plc (supplied, no catalogue number); host or cells: unpurified hybridoma / tissue culture supernatant from secreting cells
Briefly: ELISA: biotinylated fibrinogen binding to captured soluble αIIbβ3-mFc in the presence of RGD peptides.
Text: as §2
The plates were washed with PBS using a Denley Wellwash 4 Mk 2. Washing was repeated twice with a 400 μl wash per well. 200 μl/well of blocking buffer was then added for 1 hour followed by a repeat washing with PBS. 100 μl of tissue culture supernatant from cells secreting soluble αIIbβ3-mFc or αvβ5-mFc, diluted 1:2 in conjugate buffer, was added to each well. […] After incubation, the plates were washed with PBS as described above. 100 μl of neutravidin-peroxidase was added to each well and the plates were incubated for 30 minutes with shaking, followed by two washes with PBS. 100 μl of TMB substrate was added to each well and the plates were shaken during color development. Plates were read using a plate spectrophotometer at 630 nm.
as §5, §4

T2 sequence (P08648 42-995 limits assumed): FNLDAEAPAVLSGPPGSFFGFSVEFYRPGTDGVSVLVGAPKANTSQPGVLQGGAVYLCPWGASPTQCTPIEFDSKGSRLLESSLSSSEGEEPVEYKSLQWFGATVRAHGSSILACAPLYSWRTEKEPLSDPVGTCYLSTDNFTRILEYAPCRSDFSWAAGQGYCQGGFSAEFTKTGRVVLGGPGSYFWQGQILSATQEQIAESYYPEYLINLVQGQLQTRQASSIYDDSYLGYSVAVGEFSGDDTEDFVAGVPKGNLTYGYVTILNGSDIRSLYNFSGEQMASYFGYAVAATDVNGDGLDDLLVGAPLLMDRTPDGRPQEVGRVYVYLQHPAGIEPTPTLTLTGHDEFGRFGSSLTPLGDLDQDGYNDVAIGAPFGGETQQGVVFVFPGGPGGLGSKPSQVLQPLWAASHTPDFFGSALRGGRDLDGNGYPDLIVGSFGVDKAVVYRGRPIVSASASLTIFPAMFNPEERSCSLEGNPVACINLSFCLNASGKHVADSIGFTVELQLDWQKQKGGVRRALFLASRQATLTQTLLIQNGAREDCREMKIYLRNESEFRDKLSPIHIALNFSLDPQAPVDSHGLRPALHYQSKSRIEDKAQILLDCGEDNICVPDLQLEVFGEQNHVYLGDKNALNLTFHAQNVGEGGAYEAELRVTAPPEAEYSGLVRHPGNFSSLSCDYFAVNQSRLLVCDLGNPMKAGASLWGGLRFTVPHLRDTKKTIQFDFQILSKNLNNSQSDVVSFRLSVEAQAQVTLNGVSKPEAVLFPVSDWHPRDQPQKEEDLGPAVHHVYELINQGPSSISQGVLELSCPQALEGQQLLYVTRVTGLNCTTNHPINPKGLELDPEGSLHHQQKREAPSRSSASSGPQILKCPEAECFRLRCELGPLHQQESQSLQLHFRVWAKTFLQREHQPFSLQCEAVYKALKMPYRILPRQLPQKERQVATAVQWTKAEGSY
T2 sequence (P05556 21-728 limits assumed): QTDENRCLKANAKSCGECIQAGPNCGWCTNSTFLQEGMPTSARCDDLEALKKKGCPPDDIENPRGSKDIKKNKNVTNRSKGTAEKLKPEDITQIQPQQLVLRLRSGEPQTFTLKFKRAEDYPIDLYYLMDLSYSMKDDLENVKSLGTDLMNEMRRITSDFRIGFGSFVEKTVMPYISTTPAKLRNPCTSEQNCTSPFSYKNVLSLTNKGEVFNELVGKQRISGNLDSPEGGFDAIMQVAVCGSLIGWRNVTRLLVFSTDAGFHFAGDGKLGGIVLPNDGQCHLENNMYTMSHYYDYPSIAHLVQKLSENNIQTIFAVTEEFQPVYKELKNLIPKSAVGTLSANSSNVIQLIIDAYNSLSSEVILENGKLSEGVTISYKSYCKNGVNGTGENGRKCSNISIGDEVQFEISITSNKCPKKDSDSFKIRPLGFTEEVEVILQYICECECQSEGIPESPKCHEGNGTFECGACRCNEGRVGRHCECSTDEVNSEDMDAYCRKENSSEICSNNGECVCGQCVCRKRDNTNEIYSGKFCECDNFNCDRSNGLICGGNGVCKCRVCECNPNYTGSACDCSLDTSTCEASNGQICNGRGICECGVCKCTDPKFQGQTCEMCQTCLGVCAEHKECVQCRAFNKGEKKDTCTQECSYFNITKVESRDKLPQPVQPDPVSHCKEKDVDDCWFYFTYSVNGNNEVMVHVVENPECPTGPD
T1 sequence (P06756 31-992 limits assumed): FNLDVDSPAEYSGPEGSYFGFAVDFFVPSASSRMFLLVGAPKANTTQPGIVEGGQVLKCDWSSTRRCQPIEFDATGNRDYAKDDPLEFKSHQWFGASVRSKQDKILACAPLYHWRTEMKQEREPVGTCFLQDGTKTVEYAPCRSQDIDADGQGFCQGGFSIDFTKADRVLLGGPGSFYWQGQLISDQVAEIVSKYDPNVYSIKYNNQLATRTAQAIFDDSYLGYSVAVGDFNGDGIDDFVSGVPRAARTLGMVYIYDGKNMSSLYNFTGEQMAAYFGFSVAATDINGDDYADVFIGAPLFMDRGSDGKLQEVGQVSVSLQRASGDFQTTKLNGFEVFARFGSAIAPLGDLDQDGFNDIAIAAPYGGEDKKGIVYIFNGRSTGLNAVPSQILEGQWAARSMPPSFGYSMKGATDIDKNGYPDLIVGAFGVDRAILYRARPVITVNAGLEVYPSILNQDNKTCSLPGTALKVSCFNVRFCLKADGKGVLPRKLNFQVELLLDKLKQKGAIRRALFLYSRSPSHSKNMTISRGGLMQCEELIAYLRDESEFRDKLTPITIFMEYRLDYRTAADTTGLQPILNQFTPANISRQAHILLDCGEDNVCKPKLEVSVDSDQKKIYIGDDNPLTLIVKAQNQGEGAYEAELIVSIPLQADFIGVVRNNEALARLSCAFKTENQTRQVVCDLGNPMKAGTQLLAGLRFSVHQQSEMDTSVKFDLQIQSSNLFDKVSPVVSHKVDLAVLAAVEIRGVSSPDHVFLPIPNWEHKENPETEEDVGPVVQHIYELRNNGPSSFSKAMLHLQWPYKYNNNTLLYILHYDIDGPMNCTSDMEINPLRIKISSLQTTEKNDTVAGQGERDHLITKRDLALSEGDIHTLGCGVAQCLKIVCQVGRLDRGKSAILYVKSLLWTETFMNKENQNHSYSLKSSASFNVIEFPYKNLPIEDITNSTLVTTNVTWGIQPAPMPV
T1 sequence (P18084 24-719 limits assumed): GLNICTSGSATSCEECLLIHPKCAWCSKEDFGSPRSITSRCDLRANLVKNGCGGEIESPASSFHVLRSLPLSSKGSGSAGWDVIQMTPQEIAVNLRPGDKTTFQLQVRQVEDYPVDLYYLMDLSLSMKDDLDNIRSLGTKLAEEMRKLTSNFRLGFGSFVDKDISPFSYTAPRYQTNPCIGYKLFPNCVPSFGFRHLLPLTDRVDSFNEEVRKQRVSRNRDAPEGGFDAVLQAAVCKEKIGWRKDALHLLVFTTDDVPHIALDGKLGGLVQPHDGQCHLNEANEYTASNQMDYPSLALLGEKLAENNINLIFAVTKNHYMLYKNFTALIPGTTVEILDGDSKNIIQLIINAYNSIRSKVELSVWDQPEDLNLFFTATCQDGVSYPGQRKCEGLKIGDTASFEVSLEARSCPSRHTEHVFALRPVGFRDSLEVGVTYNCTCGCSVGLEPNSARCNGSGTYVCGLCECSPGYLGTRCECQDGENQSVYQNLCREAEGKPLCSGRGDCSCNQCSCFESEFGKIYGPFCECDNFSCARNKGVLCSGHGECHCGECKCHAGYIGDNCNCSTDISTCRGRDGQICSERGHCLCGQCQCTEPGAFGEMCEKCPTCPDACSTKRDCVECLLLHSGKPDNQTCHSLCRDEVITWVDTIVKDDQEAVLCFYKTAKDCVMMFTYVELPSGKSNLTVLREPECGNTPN
T4 sequence (P08514 32-993 limits assumed): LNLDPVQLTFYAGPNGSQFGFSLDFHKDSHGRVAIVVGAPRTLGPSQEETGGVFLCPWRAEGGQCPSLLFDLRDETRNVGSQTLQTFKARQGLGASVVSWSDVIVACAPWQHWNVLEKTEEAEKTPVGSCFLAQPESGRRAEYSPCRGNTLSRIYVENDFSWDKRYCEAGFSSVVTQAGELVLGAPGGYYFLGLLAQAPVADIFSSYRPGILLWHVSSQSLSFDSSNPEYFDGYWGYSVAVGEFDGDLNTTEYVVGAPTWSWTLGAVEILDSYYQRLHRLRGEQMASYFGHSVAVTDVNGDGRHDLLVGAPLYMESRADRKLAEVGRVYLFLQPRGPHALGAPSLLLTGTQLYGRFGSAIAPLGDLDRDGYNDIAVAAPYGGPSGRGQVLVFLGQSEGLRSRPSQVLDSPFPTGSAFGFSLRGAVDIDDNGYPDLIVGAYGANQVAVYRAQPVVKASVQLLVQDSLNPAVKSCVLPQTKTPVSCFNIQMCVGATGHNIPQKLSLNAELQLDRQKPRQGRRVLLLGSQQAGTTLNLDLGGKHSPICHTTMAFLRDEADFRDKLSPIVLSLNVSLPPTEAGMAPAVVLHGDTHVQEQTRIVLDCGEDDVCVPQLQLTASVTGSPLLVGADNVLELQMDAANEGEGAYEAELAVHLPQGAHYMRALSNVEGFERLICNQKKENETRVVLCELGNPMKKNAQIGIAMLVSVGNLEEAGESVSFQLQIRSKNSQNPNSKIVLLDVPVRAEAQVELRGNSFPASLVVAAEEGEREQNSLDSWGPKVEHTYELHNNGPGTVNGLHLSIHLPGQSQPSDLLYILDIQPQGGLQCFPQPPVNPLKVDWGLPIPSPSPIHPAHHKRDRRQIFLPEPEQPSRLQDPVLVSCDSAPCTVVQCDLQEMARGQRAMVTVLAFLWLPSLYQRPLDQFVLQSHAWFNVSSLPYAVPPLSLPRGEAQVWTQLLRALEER
T4 sequence (P05106 27-718 limits assumed): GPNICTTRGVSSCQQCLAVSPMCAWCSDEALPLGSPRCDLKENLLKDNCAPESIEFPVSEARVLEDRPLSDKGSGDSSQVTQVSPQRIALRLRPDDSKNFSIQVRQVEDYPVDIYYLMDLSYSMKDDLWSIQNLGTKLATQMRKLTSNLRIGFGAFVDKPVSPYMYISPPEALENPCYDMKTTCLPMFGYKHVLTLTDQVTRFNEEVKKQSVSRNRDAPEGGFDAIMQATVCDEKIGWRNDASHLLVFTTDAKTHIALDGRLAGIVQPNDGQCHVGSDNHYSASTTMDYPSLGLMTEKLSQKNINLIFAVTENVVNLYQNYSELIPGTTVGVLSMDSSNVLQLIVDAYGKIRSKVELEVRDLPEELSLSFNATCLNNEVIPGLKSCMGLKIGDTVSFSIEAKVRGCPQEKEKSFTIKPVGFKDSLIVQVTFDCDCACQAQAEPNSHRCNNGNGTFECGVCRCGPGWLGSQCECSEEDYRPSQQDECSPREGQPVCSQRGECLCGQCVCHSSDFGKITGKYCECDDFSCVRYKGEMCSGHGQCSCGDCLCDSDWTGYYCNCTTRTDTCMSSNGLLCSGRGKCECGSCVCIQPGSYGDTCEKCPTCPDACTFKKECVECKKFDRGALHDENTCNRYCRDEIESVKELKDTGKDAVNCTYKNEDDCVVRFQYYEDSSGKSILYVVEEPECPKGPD
T3 sequence (P06756 31-992 limits assumed): as the sequence (P06756 31-992 limits assumed) above
T3 sequence (P05106 27-718 limits assumed): as the sequence (P05106 27-718 limits assumed) above

In the case of “4-[^18F]-fluorobenzoyl cyclic (RGDY(OMe)K) [[^18F]-C7]”, in data set [1], the “uptake in PET images” value is “distinct areas of [^18F]-C7 uptake in the lower region of the mouse”. In addition, in data set [2], the “tumor to organ ratio, heart” value was 5.83; the “tumor to organ ratio, lung” value is reported as 2.33; the “tumor to organ ratio, muscle” value came out at 11.67; the “tumor to organ ratio, skin” value stood at 1.6.

The term IC50 denotes the concentration that inhibits the measured activity by half. Regarding `COc1ccc(C[C@@H]2NC(=O)[C@H](CC(=O)O)NC(=O)CNC(=O)[C@H](CCCNC(=N)N)NC(=O)[C@H](CCCCNC(=O)c3ccc(F)cc3)NC2=O)cc1` [C7, 4-[^19F]-fluorobenzoyl cyclic (RGDY(OMe)K)], the “vitronectin binding to αvβ5, % of the maximum signal” value on αvβ5 integrin (2 μM peptide, 100% = signal without peptide) is reported as 26.1%. Further, the IC50 at αvβ5 integrin (text b200, read-out: IC50 for αvβ5) is 1.69 µM; on α5β1 integrin (text b200, read-out: IC50 for α5β1) it was 0.481 µM. Besides, the “fibronectin binding to α5β1, % of the maximum signal” value on α5β1 integrin (2 μM peptide) was determined as 47%.

In the case of `N=C(N)NCCC[C@@H]1NC(=O)[C@H](CCCCNC(=O)c2ccc(F)cc2)NC(=O)[C@@H](Cc2ccccc2)NC(=O)[C@H](CC(=O)O)NC(=O)CNC1=O` [C10], the IC50 at αvβ5 integrin (Table 2, no unit printed (b200 gives same values in μM), read-out: Mean IC50, αvβ5) amounted to 6.01 µM; on αvβ3 integrin, 0.018 µM; at α5β1 integrin (Table 2, no unit printed (b200 gives same values in μM), read-out: Mean IC50, α5β1), 1.37 µM; at αIIbβ3 integrin (Table 2, no unit printed (b200 gives same values in μM)), 1.23 µM. The “fibrinogen binding to αIIbβ3” value at αIIbβ3 integrin (200 nM peptide) was determined as 42.1%. On αIIbβ3 integrin (2 μM peptide), the “fibrinogen binding to αIIbβ3, % of the maximum signal” value is 21.9%.
